# From article PMC7083851, “Extended pharmacodynamic responses observed upon PROTAC-mediated degradation of RIPK2” (Communications Biology, 2020)
# Where “and” joins values, the source holds several entries; their conditions need not be identical. Equal values may be shown once.
# Legend:
# Microsomal CLint, rat = assay type: in vitro ADME; settings: rat microsomes
# Procedure: (§1) Metabolic stability was performed at Cyprotex (UK). Pooled liver microsomes / cryopreserved pooled hepatocytes were purchased from a commercial supplier (BD Biosciences or Corning/InVitro Technologies).
# (§2) The final incubation volume was 500 μL. A minus cofactor control incubation was included for each compound tested where 0.05 M phosphate buffer pH 7.4 was added instead of NADPH (minus NADPH). Each compound was incubated for 0, 5, 15, 30, and 45 min. The control (minus NADPH) was incubated for 45 min only.
# (§3) All incubations were terminated by transferring 50 μL of incubate to 100 μL of acetonitrile containing internal standard at the appropriate time points. The termination plates were centrifuged at 2500 rpm for 20–30min at 4 °C to precipitate the protein. Following protein precipitation, samples were analysed using quantitative LC-MS/MS. A plot of ln peak area ratio (compound peak area/internal standard peak area) against time, yielded the gradient of the line.
# (§4) Calculated intrinsic clearance values of control compounds were compared with the Cyprotex data library to confirm the appropriate activity of the microsomal/hepatocyte batch and data acceptance.
# [1] = ChromLogD7.4 high-throughput chromatographic lipophilicity; assay type: physicochemical
# Microsomal CLint, human = assay type: in vitro ADME; settings: human microsomes
# Procedure: as §1, §2, §3, §4
# MDP-induced TNFα release = MDP-induced TNFα release in human whole blood; assay type: cell-based; settings: inhibition of MDP-induced TNFα release
# Procedure: (§5) Before treatment with compound or vehicle, THP1 cells, human and rat PBMCs were counted using Vi-Cell cell counter (Invitrogen) and adjusted to a final cell density of […] using complete growth medium. Cells or whole blood were treated with vehicle (0.1% DMSO) or fixed concentrations of compound up to 1 μM in half log unit increments and incubated for the time period indicated in the figure.
# Where the assessment of cytokines was performed, L18-MDP was added to the cell culture media (1 μg/ml) or to the rat blood samples (100 ng/ml) and samples were incubated for up to 4 h. […]
# Cytokine measurement assay: Cytokine levels were measured in rat plasma or rat PBMCs cell culture supernatants using rat V-Plex TNFα, in human plasma or human PBMCs cell culture supernatants with either TNFα tissue culture or 7-plex kit. Rat serum and tissues samples from the in vivo L18-MDP acute inflammation model were analyzed using the rat TNFα, Il-6 and IL-8 U-Plex kits. […] Levels of cytokines spontaneously released from human colon biopsies cell culture supernatants were measured using Human IL-1 beta/IL-1F2 DuoSet ELISA (Bio-techne), Human IL-6 ELISA (Immunotools) and Human TNF-alpha DuoSet ELISA (Bio-techne). […] The MSD plates were analyzed using the MSD sector imager 6000 plate reader and cytokines concentration (pg/ml) was obtained by using the MSD DISCOVERY WORKBENCH software version 4.0.12.1 […]
# [2] = High-throughput precipitation solubility, chemiluminescent nitrogen-specific detection (CLND); assay type: physicochemical; settings: high-throughput precipitation assay
# RIPK2 [3] = target: T1, RIPK2 (Homo sapiens, UniProt O43353); assay: RIPK2 degradation in THP-1 cells, capillary-based immunoassay, 18 h; assay type: cell-based; set-up: endogenous in cells; host or cells: THP-1 (ATCC TIB-202); settings: for RIPK2 level relative to DMSO control, mean / RIPK2 level relative to DMSO control, replicate: THP-1, 18 h
# T1 sequence (O43353 whole entry): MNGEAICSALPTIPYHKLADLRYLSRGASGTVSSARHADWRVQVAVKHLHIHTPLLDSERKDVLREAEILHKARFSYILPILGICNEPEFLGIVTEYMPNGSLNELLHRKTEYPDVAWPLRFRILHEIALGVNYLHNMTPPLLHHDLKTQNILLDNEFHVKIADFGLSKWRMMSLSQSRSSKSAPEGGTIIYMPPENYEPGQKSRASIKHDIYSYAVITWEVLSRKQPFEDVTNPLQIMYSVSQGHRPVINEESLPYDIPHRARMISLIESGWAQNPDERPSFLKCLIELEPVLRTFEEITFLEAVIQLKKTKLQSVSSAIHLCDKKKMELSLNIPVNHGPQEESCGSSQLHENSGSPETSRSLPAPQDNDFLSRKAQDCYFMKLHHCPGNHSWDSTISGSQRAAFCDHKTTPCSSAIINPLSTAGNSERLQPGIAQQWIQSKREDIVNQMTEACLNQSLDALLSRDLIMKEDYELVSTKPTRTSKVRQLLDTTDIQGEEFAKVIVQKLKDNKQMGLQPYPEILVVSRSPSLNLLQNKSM
# Procedure: The compounds were incubated with THP-1 cells for 18 h after which RIPK2 levels were determined using a capillary-based immunoassay (n = 3). All three PROTACs potently degraded RIPK2 in a concentration dependent manner (Fig. 1). […]. This discrepancy between the in vitro RIPK2 degradation and binding potency provides possible evidence for a catalytic mechanism of action of this compound.
# as §5
# Simple Western immunoassay: Cell lysates were mixed with 5× concentrated master mix (Protein Simple) and denatured at 95 °C on a heat block for 5 min together with the provided ladder (Protein Simple). Antibodies were diluted in the provided buffer as following: anti-RIPK2 (1:10 or 1:50), anti-cIAP1(1:10), anti-cIAP2 (1:10), anti-XIAP (1:10), mouse anti-β-actin (Abcam - 1:1000), rabbit anti-β-actin (Abcam - 1:50) and anti-vinculin (1:100). All reagents (blocking buffer, primary and secondary antibodies, streptavadin, luminol/peroxide, separation matrix, stacking matrix and water) were added to the Protein Simple plate containing the ladder and lysates and the plate was placed in a Protein Simple Western instrument and the Simple Western default size assay protocol was used. All samples were analyzed using the associated Compass software 3.1.7. The area under the peak values obtained for RIPK2, cIAP1, cIAP2 or XIAP were normalized relative to the control protein values.
# In vitro experimental data were analyzed using a 4-parameter logistic equation in GraphPad Prism 5.0.4. to generate an estimate of the half-maximal concentration and maximal degradation, DC50 and Dmax value respectively, for concentration-degradation relationships. Cytokine levels were analyzed in a similar manner to yield IC50 and Imax values. […] Where analysis to a sigmoidal relationship was not possible, the data points are shown as mean ± s.e.m.
# RIPK2 [4] = target: T1, RIPK2; assay: RIPK2 fluorescence polarisation binding assay
structure (smiles),measurement,setting,value
CN[C@@H](C)C(=O)N[C@H](C(=O)N1Cc2cc(OCCOCCOCCOCCOc3cc4nccc(Nc5ccc6scnc6c5)c4cc3S(=O)(=O)C(C)(C)C)ccc2C[C@H]1C(=O)N[C@@H]1CCCc2ccccc21)C(C)(C)C [PROTAC 2],microsomal turnover,"Microsomal CLint, rat",11 mL/min/g liver
same,ChromLogD7.4,[1],6.1
same,microsomal turnover,"Microsomal CLint, human",29 mL/min/g liver
same,hWB MDP pIC50 ± SEM (n),MDP-induced TNFα release,7.95 ± 0
same,"CLND solubility, in words",[2],poor solubility
same,"RIPK2 level relative to DMSO control, mean",RIPK2 [3]; concentration 5.64503e-11 (uM),117.46%
same,"RIPK2 level relative to DMSO control, replicate",RIPK2 [3]; concentration 5.64503e-11 (uM),117.27% and 131.32% and 103.77%
same,"RIPK2 level relative to DMSO control, mean",RIPK2 [3]; concentration 1.69351e-10 (uM),97.22%
same,"RIPK2 level relative to DMSO control, replicate",RIPK2 [3]; concentration 1.69351e-10 (uM),71.86% and 108.98% and 110.82%
same,"RIPK2 level relative to DMSO control, mean",RIPK2 [3]; concentration 5.08053e-10 (uM),57.20%
same,"RIPK2 level relative to DMSO control, replicate",RIPK2 [3]; concentration 5.08053e-10 (uM),41.71% and 72.70% and 57.18%
same,"RIPK2 level relative to DMSO control, mean",RIPK2 [3]; concentration 1.52416e-9 (uM),26.83%
same,"RIPK2 level relative to DMSO control, replicate",RIPK2 [3]; concentration 1.52416e-9 (uM),18.29% and 36.88% and 25.33%
same,"RIPK2 level relative to DMSO control, mean",RIPK2 [3]; concentration 4.57247e-9 (uM),15.28%
same,"RIPK2 level relative to DMSO control, replicate",RIPK2 [3]; concentration 4.57247e-9 (uM),12.82% and 16.44% and 16.58%
same,"RIPK2 level relative to DMSO control, mean",RIPK2 [3]; concentration 1.37174e-8 (uM),8.47%
same,"RIPK2 level relative to DMSO control, replicate",RIPK2 [3]; concentration 1.37174e-8 (uM),4.51% and 15.08% and 5.82%
same,"RIPK2 level relative to DMSO control, mean",RIPK2 [3]; concentration 4.11523e-8 (uM),4.73%
same,"RIPK2 level relative to DMSO control, replicate",RIPK2 [3]; concentration 4.11523e-8 (uM),6.91% and 6.83% and 0.44%
same,"RIPK2 level relative to DMSO control, mean",RIPK2 [3]; concentration 1.23457e-7 (uM),7.39%
same,"RIPK2 level relative to DMSO control, replicate",RIPK2 [3]; concentration 1.23457e-7 (uM),4.63% and 11.01% and 6.53%
same,"RIPK2 level relative to DMSO control, mean",RIPK2 [3]; concentration 3.7037e-7 (uM),9.35%
same,"RIPK2 level relative to DMSO control, replicate",RIPK2 [3]; concentration 3.7037e-7 (uM),5.28% and 16.09% and 6.68%
same,"RIPK2 level relative to DMSO control, mean",RIPK2 [3]; concentration 1.11111e-6 (uM),11.12%
same,"RIPK2 level relative to DMSO control, replicate",RIPK2 [3]; concentration 1.11111e-6 (uM),12.33% and 13.80% and 7.23%
same,"RIPK2 level relative to DMSO control, mean",RIPK2 [3]; concentration 3.33333e-6 (uM),14.86%
same,"RIPK2 level relative to DMSO control, replicate",RIPK2 [3]; concentration 3.33333e-6 (uM),10.80% and 18.84% and 14.95%
same,"RIPK2 level relative to DMSO control, mean",RIPK2 [3]; concentration 1e-5 (uM),10.81%
same,"RIPK2 level relative to DMSO control, replicate",RIPK2 [3]; concentration 1e-5 (uM),10.44% and 15.52% and 6.46%
same,pDC50 (log half-maximal degradation concentration) of RIPK2,"RIPK2 [3]; THP-1 cells, 18 h, n = 3",9.4 ± 0.1
same,IC50,RIPK2 [4],10 nM
